Assay results reported in US10890591B2, “Methods and dose packs for monitoring medication adherence” (Synapse Biosciences, LLC, priority 2016, dated 2021).
Each block holds one compound with its values, some of them ahead of it.

What was measured:
[1] = Multiple Marker Experiment 1: saliva samples, marker concentration by LC-MS/MS; conditions: human, in vivo;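 also: mean across four subjects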
Description: (§1) All other markers were obtained from commercial sources. Urine and saliva were collected prior to each day's dosing of marker confirming the presence or absence of markers before the experiment started. […] The presence of all 7 markers at day 8 would confirm that all markers were ingested in the previous 7 day one week period.
(§2) Healthy volunteers with no recent exposure to the markers who were not currently taking prescribed medications, OTC medications or vitamins and supplements were chosen. Exposure to the markers more than one month before starting the experiment was allowed and no dietary restrictions were required. Subjects were given a 7 day blister pack with markers sequenced in the order above. Subjects verbally confirmed they understood the urine and saliva collection procedures. Instructions printed on the marker blister pack instructed subjects to collect urine and saliva each morning before they took the daily dose of marker. They were also instructed to take the daily dose of marker close to the same time each day.

[2] = Multiple Marker Experiment 2: urine samples, simulated non-adherence (one marker dose skipped per subject), LC-MS/MS; conditions: for Subject B, Urine Results / Subject C, Urine Results: collected before that day's dose; for Subject B, Urine Results / Subject C, Urine Results / concentration at 8 day: other markers dosed once; for concentration at 8 day: Urine Results, Day 8 sample
[3] = Multiple Marker Experiment 1: urine samples, adherent with all markers, marker concentration by LC-MS/MS
Description: as §1, §2

[4] = Day 1 sample, collected before that day's dose, Experiment #1, adherent with all markers, each marker dosed once
[5] = Day 2 sample, collected before that day's dose, Experiment #1, adherent with all markers, each marker dosed once
[6] = Day 3 sample, collected before that day's dose, Experiment #1, adherent with all markers, each marker dosed once
[7] = Day 4 sample, collected before that day's dose, Experiment #1, adherent with all markers, each marker dosed once
[8] = Day 5 sample, collected before that day's dose, Experiment #1, adherent with all markers, each marker dosed once
[9] = Day 6 sample, collected before that day's dose, Experiment #1, adherent with all markers, each marker dosed once
[10] = Day 7 sample, collected before that day's dose, Experiment #1, adherent with all markers, each marker dosed once
[11] = Day 8 sample, Experiment #1, adherent with all markers, each marker dosed once
[12] = human, in vivo, Average of Urine Samples
[13] = human, in vivo, Subject B, Urine Results
[14] = human, in vivo, Subject A, Urine Results

SMILES: CN(C)C(=O)C(CCN1CCC(O)(c2ccc(Cl)cc2)CC1)(c1ccccc1)c1ccccc1 [Loperamide]
- concentration at 1 day [1]: 0 ng/mL
- concentration at 2 day [1]: 0 ng/mL
- concentration at 3 day [1]: 0.431 ng/mL
- concentration at 4 day [1]: 0.18 ng/mL
- concentration at 5 day [1]: 0.257 ng/mL
- concentration at 6 day [1]: 0.112 ng/mL
- concentration at 7 day [1]: 0.0922 ng/mL
- concentration at 8 day [1]: 0.0265 ng/mL
- Subject B, Urine Results ([2]; Day 1 sample, Experiment #2, subject B skipped diphenhydramine on day 5): 0 ng/mL
- Subject C, Urine Results ([2]; Day 1 sample, Experiment #2, subject C skipped Loperamide on day 2): 0 ng/mL
- Subject B, Urine Results ([2]; Day 2 sample, Experiment #2, subject B skipped diphenhydramine on day 5): 0 ng/mL
- Subject C, Urine Results ([2]; Day 2 sample, Experiment #2, subject C skipped Loperamide on day 2): 0 ng/mL
- Subject B, Urine Results ([2]; Day 3 sample, Experiment #2, subject B skipped diphenhydramine on day 5): 209 ng/mL
- Subject C, Urine Results ([2]; Day 3 sample, Experiment #2, subject C skipped Loperamide on day 2): 0 ng/mL
- Subject B, Urine Results ([2]; Day 4 sample, Experiment #2, subject B skipped diphenhydramine on day 5): 101 ng/mL
- Subject C, Urine Results ([2]; Day 4 sample, Experiment #2, subject C skipped Loperamide on day 2): 0 ng/mL
- Subject B, Urine Results ([2]; Day 5 sample, Experiment #2, subject B skipped diphenhydramine on day 5): 32.3 ng/mL
- Subject C, Urine Results ([2]; Day 5 sample, Experiment #2, subject C skipped Loperamide on day 2): 0 ng/mL
- Subject B, Urine Results ([2]; Day 6 sample, Experiment #2, subject B skipped diphenhydramine on day 5): 13.8 ng/mL
- Subject C, Urine Results ([2]; Day 6 sample, Experiment #2, subject C skipped Loperamide on day 2): 0 ng/mL
- Subject B, Urine Results ([2]; Day 7 sample, Experiment #2, subject B skipped diphenhydramine on day 5): 12.8 ng/mL
- Subject C, Urine Results ([2]; Day 7 sample, Experiment #2, subject C skipped Loperamide on day 2): 0 ng/mL
- course of urine levels relative to dosing ([2]; Experiment 2, days 1-8): zero before dosing, peaked the day after dosing and slowly decreased over time
- concentration at 1 day ([2]; human, in vivo): 0 ng/mL
- concentration at 2 day ([2]; human, in vivo): 0 ng/mL
- concentration at 8 day ([2]; human, in vivo, Subject B, Experiment #2, subject B skipped diphenhydramine on day 5): 2.92 ng/mL
- concentration at 8 day ([2]; human, in vivo, Subject C, Experiment #2, subject C skipped Loperamide on day 2): 0 ng/mL
- Subject A, Urine Results [3, 4]: 0 ng/mL
- Subject B, Urine Results [3, 4]: 0 ng/mL
- Subject C, Urine Results [3, 4]: 0 ng/m
- Subject D, Urine Results [3, 4]: 0 ng/m
- Subject A, Urine Results [3, 5]: 0 ng/mL
- Subject B, Urine Results [3, 5]: 0 ng/mL
- Subject C, Urine Results [3, 5]: 0 ng/m
- Subject D, Urine Results [3, 5]: 0 ng/m
- Subject A, Urine Results [3, 6]: 28.4 ng/mL
- Subject B, Urine Results [3, 6]: 206 ng/mL
- Subject C, Urine Results [3, 6]: 75.2 ng/m
- Subject D, Urine Results [3, 6]: 110 ng/m
- Average of Urine Samples ([3]; Day 3 sample, collected before that day's dose, average of subjects A, B, C, D, Experiment 1, each marker dosed once): 104.9 ng/mL
- Subject A, Urine Results [3, 7]: 98.4 ng/mL
- Subject B, Urine Results [3, 7]: 26.8 ng/mL
- Subject C, Urine Results [3, 7]: 23.7 ng/m
- Subject D, Urine Results [3, 7]: 100 ng/m
- Average of Urine Samples ([3]; Day 4 sample, collected before that day's dose, average of subjects A, B, C, D, Experiment 1, each marker dosed once): 62.225 ng/mL
- Subject A, Urine Results [3, 8]: 31.6 ng/mL
- Subject B, Urine Results [3, 8]: 6.94 ng/mL
- Subject C, Urine Results [3, 8]: 7.11 ng/m
- Subject D, Urine Results [3, 8]: 18.6 ng/m
- Average of Urine Samples ([3]; Day 5 sample, collected before that day's dose, average of subjects A, B, C, D, Experiment 1, each marker dosed once): 16.0625 ng/mL
- Subject A, Urine Results [3, 9]: 24.1 ng/mL
- Subject B, Urine Results [3, 9]: 5.5 ng/mL
- Subject C, Urine Results [3, 9]: 5.02 ng/m
- Subject D, Urine Results [3, 9]: 6.37 ng/m
- Average of Urine Samples ([3]; Day 6 sample, collected before that day's dose, average of subjects A, B, C, D, Experiment 1, each marker dosed once): 10.2475 ng/mL
- Subject A, Urine Results [3, 10]: 0.035 ng/mL
- Subject B, Urine Results [3, 10]: 2.33 ng/mL
- Subject C, Urine Results [3, 10]: 2.41 ng/m
- Subject D, Urine Results [3, 10]: 5.8 ng/m
- Average of Urine Samples ([3]; Day 7 sample, collected before that day's dose, average of subjects A, B, C, D, Experiment 1, each marker dosed once): 2.644 ng/mL
- Subject C, Urine Results [3, 11]: 1.89 ng/m
- Subject D, Urine Results [3, 11]: 2.71 ng/m
- course of urine levels relative to dosing ([3]; Experiment 1, days 1-8): zero before dosing, peaked the day after dosing and slowly decreased over time
- concentration at 1 day ([3]; human, in vivo): 0 ng/mL
- concentration at 2 day ([3]; human, in vivo): 0 ng/mL
- concentration at 8 day ([3]; human, in vivo, Average of Urine Samples, Day 8 sample, average of subjects A, B, C, D, Experiment 1, each marker dosed once): 1.18 ng/mL
- concentration at 8 day ([3]; human, in vivo, Subject A, Urine Results, Day 8 sample, Experiment #1, adherent with all markers, each marker dosed once): 0.022 ng/mL
- concentration at 8 day ([3]; human, in vivo, Subject B, Urine Results, Day 8 sample, Experiment #1, adherent with all markers, each marker dosed once): 0.107 ng/mL

- concentration at 1 day [1]: 85.5 ng/mL
- concentration at 2 day [1]: 92 ng/mL
- concentration at 3 day [1]: 58.2 ng/mL
- concentration at 4 day [1]: 45.5 ng/mL
- concentration at 5 day [1]: 37.3 ng/mL
- concentration at 6 day [1]: 85.5 ng/mL
- concentration at 7 day [1]: 40.8 ng/mL
- concentration at 8 day [1]: 43.1 ng/mL
- Subject C, Urine Results ([3]; human, in vivo, 1 day): 1210 ng/m
- Subject D, Urine Results ([3]; human, in vivo, 1 day): 819 ng/m
- Subject C, Urine Results ([3]; human, in vivo, 2 day): 4940 ng/m
- Subject D, Urine Results ([3]; human, in vivo, 2 day): 1290 ng/m
- Subject C, Urine Results ([3]; human, in vivo, 3 day): 3150 ng/m
- Subject D, Urine Results ([3]; human, in vivo, 3 day): 5190 ng/m
- Subject C, Urine Results ([3]; human, in vivo, 4 day): 3150 ng/m
- Subject D, Urine Results ([3]; human, in vivo, 4 day): 4330 ng/m
- Subject C, Urine Results ([3]; human, in vivo, 5 day): 1230 ng/m
- Subject D, Urine Results ([3]; human, in vivo, 5 day): 1730 ng/m
- Subject C, Urine Results ([3]; human, in vivo, 6 day): 1680 ng/m
- Subject D, Urine Results ([3]; human, in vivo, 6 day): 2120 ng/m
- Subject C, Urine Results ([3]; human, in vivo, 7 day): 4450 ng/m
- Subject D, Urine Results ([3]; human, in vivo, 7 day): 3200 ng/m
- Subject C, Urine Results ([3]; human, in vivo, 8 day): 9920 ng/m
- Subject D, Urine Results ([3]; human, in vivo, 8 day): 3310 ng/m
- concentration at 1 day [3, 12]: 2240 ng/mL
- concentration at 2 day [3, 12]: 2490 ng/mL
- concentration at 3 day [3, 12]: 2960 ng/mL
- concentration at 4 day [3, 12]: 5130 ng/mL
- concentration at 5 day [3, 12]: 2110 ng/mL
- concentration at 6 day [3, 12]: 2270 ng/mL
- concentration at 7 day [3, 12]: 3100 ng/mL
- concentration at 8 day [3, 12]: 5710 ng/mL
- concentration at 3 day [3, 13]: 3040 ng/mL
SMILES: Cc1cc2nc3c(=O)[nH]c(=O)nc-3n(C[C@H](O)[C@H](O)[C@H](O)CO)c2cc1C [Riboflavin]

- concentration at 1 day [1]: 0 ng/mL
- concentration at 2 day [1]: 16.8 ng/mL
- concentration at 3 day [1]: 1.56 ng/mL
- concentration at 4 day [1]: 0.562 ng/mL
- concentration at 5 day [1]: 0.366 ng/mL
- concentration at 6 day [1]: 0.176 ng/mL
- concentration at 7 day [1]: 0.0757 ng/mL
- concentration at 8 day [1]: 0.048 ng/mL
- Subject C, Urine Results ([3]; human, in vivo, 1 day): 0 ng/m
- Subject D, Urine Results ([3]; human, in vivo, 1 day): 0 ng/m
- Subject C, Urine Results ([3]; human, in vivo, 2 day): 4930 ng/m
- Subject D, Urine Results ([3]; human, in vivo, 2 day): 4910 ng/m
- Subject C, Urine Results ([3]; human, in vivo, 3 day): 492 ng/m
- Subject D, Urine Results ([3]; human, in vivo, 3 day): 300 ng/m
- Subject C, Urine Results ([3]; human, in vivo, 4 day): 68.3 ng/m
- Subject D, Urine Results ([3]; human, in vivo, 4 day): 51.5 ng/m
- Subject C, Urine Results ([3]; human, in vivo, 5 day): 41.9 ng/m
- Subject D, Urine Results ([3]; human, in vivo, 5 day): 39.4 ng/m
- Subject C, Urine Results ([3]; human, in vivo, 6 day): 39.6 ng/m
- Subject D, Urine Results ([3]; human, in vivo, 6 day): 22.6 ng/m
- Subject C, Urine Results ([3]; human, in vivo, 7 day): 25.2 ng/m
- Subject D, Urine Results ([3]; human, in vivo, 7 day): 14 ng/m
- Subject C, Urine Results ([3]; human, in vivo, 8 day): 23.5 ng/m
- Subject D, Urine Results ([3]; human, in vivo, 8 day): 12.1 ng/m
- concentration at 1 day [3, 12]: 0 ng/mL
- concentration at 2 day [3, 12]: 3720 ng/mL
- concentration at 3 day [3, 12]: 351 ng/mL
- concentration at 4 day [3, 12]: 56.5 ng/mL
- concentration at 5 day [3, 12]: 40.7 ng/mL
- concentration at 6 day [3, 12]: 34.3 ng/mL
- concentration at 7 day [3, 12]: 13.9 ng/mL
- concentration at 8 day [3, 12]: 10.4 ng/mL
- concentration at 1 day [3, 14]: 0 ng/mL
- concentration at 2 day [3, 14]: 801 ng/mL
- concentration at 3 day [3, 14]: 156 ng/mL
- concentration at 4 day [3, 14]: 63.4 ng/mL
- concentration at 5 day [3, 14]: 61.8 ng/mL
- concentration at 6 day [3, 14]: 58.5 ng/mL
- concentration at 7 day [3, 14]: 11.2 ng/mL
- concentration at 8 day [3, 14]: 1.16 ng/mL
- concentration at 1 day [3, 13]: 0 ng/mL
- concentration at 3 day [3, 13]: 456 ng/mL
SMILES: CNC(=C[N+](=O)[O-])NCCSCc1ccc(CN(C)C)o1 [Ranitidine]
